Experimental data taken from ChEMBL document CHEMBL1914426, “Phospshoinositide 3-kinase (PI3K)/mammalian target of rapamycin (mTOR) dual inhibitors: discovery and structure-activity relationships of a series of quinoline and quinoxaline derivatives” (J Med Chem, 2011).
One block for each compound: values may come before it.

Columns and labels:
[1] = biological target: T1, Phosphatidylinositol 4,5-bisphosphate 3-kinase catalytic subunit alpha isoform (Homo sapiens, UniProt P42336)
[2] = biological target: T1, Phosphatidylinositol 4,5-bisphosphate 3-kinase catalytic subunit alpha isoform; remark: listed apart in the source
[3] = in vitro; conditions: rat, liver microsomes
Description: Clearance in rat liver microsomes assessed as compound remaining at 1 uM after 30 mins

[4] = Oral bioavailability in Sprague-Dawley rat at 1 mg/kg; assay type: ADME, organism-based; conditions: in vivo
[5] = system: Mus musculus; assay: Inhibition of PI3K-induced Akt phosphorylation at Ser 473 in HGF-stimulated nude CD1 mouse at 1 mg/kg, po measured after 4 hrs by quantitative electrochemiluminescence immunoassay; assay type: functional; conditions: CD1, 4 h
[6] = AUC in Sprague-Dawley rat at 1 mg/kg, po; assay type: ADME, organism-based; parameters: dose 1 mg/kg, route oral; conditions: plasma
[7] = in vivo; conditions: Sprague-Dawley, rat, iv, 1 mg/kg
Description: (§1) Clearance in Sprague-Dawley rat at 1 mg/kg, iv

[8] = organism: Rattus norvegicus; conditions: in vivo, iv, 1 mg/kg
Description: Hepatic blood flow in Sprague-Dawley rat 1 mg/kg, iv

[9] = Plasma concentration in nude CD1 mouse at 1 mg/kg, po measured after 4 hrs; assay type: ADME, organism-based; parameters: dose 1 mg/kg, route oral
[10] = system: Mus musculus; assay: Inhibition of PI3K-induced Akt phosphorylation at Ser 473 in HGF-stimulated nude CD1 mouse at 3 mg/kg, po measured after 4 hrs by quantitative electrochemiluminescence immunoassay; assay type: functional; conditions: CD1, 4 h
[11] = Plasma concentration in nude CD1 mouse at 0.3 mg/kg, po measured after 4 hrs; assay type: ADME, organism-based; parameters: dose 0.3 mg/kg, route oral
[12] = biological target: Serine/threonine-protein kinase mTOR (Homo sapiens, UniProt P42345)
Description: Inhibition of mTOR using GFP-tagged 4E-BP1 after 1 hr by spectrophotometric analysis

[13] = biological target: T2, Phosphatidylinositol 4,5-bisphosphate 3-kinase catalytic subunit delta isoform (Homo sapiens, UniProt O00329)
T2 sequence (O00329 whole entry): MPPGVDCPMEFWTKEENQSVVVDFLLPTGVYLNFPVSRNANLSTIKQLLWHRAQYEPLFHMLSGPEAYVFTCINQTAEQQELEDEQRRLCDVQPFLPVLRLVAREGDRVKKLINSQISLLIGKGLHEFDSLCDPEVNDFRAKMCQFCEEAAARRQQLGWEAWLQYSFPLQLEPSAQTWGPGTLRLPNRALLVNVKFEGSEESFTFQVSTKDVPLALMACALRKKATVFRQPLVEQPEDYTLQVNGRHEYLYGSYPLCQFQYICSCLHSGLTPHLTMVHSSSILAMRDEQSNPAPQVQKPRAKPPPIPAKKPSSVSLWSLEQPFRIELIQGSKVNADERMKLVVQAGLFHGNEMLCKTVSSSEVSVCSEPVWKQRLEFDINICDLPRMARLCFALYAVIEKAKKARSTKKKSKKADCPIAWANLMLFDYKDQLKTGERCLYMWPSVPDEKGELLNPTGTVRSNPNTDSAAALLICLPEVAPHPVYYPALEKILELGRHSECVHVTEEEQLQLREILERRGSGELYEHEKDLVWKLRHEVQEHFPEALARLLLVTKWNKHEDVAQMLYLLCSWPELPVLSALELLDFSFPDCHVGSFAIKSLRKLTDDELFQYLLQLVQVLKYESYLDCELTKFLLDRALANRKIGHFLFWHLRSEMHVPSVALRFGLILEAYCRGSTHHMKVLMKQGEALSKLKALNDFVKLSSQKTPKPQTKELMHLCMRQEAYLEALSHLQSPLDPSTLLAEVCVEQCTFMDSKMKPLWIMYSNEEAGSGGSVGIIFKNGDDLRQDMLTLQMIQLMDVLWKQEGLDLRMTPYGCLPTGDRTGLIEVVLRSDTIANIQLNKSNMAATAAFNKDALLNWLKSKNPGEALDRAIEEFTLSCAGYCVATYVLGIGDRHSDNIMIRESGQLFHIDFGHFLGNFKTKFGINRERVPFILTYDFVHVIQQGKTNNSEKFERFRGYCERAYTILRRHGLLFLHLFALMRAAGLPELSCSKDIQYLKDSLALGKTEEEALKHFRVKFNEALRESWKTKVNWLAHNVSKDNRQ

[14] = biological target: Phosphatidylinositol 4,5-bisphosphate 3-kinase catalytic subunit gamma isoform (Homo sapiens, UniProt P48736); parameters: species or system Sf9
Sequence of Phosphatidylinositol 4,5-bisphosphate 3-kinase catalytic subunit gamma isoform (P48736 whole entry, canonical isoform): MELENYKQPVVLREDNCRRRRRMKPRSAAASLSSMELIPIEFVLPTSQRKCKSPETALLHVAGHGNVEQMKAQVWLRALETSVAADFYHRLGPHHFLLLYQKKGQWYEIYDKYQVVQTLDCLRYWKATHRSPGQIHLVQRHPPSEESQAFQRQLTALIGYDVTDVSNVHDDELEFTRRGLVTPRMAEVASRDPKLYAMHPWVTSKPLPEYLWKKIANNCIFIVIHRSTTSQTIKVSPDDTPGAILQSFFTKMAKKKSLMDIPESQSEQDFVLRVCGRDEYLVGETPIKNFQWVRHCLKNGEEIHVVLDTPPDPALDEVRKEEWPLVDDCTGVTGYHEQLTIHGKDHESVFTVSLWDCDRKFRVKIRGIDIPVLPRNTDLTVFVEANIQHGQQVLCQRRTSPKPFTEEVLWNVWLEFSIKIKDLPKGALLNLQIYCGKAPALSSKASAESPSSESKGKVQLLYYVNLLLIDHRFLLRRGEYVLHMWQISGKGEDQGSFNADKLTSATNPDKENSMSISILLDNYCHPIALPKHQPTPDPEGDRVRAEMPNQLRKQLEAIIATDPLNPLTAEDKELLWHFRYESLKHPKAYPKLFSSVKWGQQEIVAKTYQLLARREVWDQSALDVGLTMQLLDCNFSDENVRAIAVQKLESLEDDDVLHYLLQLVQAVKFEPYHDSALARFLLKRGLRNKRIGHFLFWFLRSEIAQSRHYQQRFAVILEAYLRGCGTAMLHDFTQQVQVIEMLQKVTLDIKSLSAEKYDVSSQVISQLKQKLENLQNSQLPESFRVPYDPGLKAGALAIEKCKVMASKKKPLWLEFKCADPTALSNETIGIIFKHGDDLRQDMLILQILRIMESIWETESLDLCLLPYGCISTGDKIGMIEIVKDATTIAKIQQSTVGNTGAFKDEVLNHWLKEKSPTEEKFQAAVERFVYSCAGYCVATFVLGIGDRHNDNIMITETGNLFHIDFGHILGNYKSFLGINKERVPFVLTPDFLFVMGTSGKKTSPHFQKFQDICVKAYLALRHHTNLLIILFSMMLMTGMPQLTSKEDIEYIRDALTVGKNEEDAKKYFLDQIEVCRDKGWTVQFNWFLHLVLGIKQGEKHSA

[15] = in vitro; conditions: human, liver microsomes
Description: Clearance in human liver microsomes assessed as compound remaining at 1 uM after 30 mins

[16] = system: Mus musculus; assay: Inhibition of PI3K-induced Akt phosphorylation at Ser 473 in HGF-stimulated nude CD1 mouse at 0.3 mg/kg, po measured after 4 hrs by quantitative electrochemiluminescence immunoassay; assay type: functional; conditions: CD1, 4 h
[17] = in vivo; conditions: Sprague-Dawley, rat, iv, 1 mg/kg; remark: listed apart in the source
Description: (§2) Mean residence time in Sprague-Dawley rat at 1 mg/kg, iv

[18] = in vivo; conditions: Sprague-Dawley, rat, iv, 1 mg/kg; remark: listed apart in the source
Description: (§3) Volume of distribution at steady-state in Sprague-Dawley rat at 1 mg/kg, iv

[19] = Plasma concentration in nude CD1 mouse at 3 mg/kg, po measured after 4 hrs; assay type: ADME, organism-based; parameters: dose 3 mg/kg, route oral
[20] = biological target: Phosphatidylinositol 4,5-bisphosphate 3-kinase catalytic subunit beta isoform (Homo sapiens, UniProt P42338)
Sequence of Phosphatidylinositol 4,5-bisphosphate 3-kinase catalytic subunit beta isoform (P42338 whole entry, canonical isoform): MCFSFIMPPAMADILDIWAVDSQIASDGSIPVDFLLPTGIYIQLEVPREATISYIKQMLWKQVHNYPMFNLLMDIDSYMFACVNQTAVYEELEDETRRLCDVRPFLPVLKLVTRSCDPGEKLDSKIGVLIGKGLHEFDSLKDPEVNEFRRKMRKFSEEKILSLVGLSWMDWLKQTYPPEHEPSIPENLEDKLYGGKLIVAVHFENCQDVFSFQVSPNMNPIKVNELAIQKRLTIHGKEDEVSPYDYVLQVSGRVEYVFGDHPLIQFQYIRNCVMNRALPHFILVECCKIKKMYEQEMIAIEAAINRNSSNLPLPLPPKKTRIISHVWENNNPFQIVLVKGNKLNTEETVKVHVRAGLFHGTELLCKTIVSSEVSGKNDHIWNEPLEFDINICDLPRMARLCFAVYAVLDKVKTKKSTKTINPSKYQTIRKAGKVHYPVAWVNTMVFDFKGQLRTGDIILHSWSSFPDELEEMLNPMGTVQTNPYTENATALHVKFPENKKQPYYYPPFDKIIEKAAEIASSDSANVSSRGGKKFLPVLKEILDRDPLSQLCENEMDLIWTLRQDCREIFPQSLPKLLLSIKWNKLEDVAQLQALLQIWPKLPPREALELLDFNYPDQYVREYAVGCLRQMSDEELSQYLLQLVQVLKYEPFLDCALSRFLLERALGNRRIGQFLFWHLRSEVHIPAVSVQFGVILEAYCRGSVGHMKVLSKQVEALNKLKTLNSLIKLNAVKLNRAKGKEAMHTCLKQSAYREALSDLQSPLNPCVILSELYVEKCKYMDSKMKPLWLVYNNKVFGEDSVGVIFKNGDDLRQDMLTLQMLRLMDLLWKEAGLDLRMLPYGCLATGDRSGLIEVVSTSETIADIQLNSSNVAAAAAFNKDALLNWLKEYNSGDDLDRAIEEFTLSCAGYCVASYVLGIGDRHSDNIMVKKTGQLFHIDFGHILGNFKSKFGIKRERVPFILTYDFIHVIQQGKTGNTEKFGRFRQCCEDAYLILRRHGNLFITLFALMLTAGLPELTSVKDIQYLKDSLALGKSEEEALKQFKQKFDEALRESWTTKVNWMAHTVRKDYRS

[21] = biological target: DNA-dependent protein kinase catalytic subunit (Homo sapiens, UniProt P78527)
Description: Inhibition of DNA-PK using fluorescein-p53 peptide as substrate after 1 hr by TR-FRET enzyme assay

[22] = biological target: Phosphatidylinositol 3-kinase catalytic subunit type 3 (Homo sapiens, UniProt Q8NEB9)
Sequence of Phosphatidylinositol 3-kinase catalytic subunit type 3 (Q8NEB9 whole entry): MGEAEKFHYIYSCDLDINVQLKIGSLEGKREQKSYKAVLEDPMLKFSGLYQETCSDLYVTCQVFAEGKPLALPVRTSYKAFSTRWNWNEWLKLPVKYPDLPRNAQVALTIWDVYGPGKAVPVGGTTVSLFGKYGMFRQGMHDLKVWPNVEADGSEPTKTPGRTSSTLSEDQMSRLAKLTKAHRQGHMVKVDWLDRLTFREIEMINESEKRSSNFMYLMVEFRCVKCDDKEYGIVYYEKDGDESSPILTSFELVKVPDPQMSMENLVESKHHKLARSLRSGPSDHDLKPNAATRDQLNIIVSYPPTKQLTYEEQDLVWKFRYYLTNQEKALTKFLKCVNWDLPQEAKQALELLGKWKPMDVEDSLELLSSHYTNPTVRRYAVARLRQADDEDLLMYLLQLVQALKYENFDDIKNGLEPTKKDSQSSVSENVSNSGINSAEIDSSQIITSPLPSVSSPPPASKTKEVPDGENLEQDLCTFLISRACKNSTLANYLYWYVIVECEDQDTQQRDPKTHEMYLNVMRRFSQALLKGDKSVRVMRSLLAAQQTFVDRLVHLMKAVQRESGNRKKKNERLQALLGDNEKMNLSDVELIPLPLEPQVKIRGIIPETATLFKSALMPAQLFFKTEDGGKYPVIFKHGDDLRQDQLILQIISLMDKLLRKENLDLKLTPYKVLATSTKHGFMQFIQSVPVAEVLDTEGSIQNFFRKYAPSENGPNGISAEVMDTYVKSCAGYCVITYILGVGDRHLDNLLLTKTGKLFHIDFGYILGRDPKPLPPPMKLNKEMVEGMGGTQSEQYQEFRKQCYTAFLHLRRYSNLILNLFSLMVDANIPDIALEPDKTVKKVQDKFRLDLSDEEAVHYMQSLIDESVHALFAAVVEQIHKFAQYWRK
Description: Inhibition of human VPS34 assessed as ADP formation using ATP by fluorescence-based immunoassay

[23] = organism: Rattus norvegicus; conditions: in vivo, iv, 1 mg/kg; remark: listed apart in the source
Description: as §1

[24] = organism: Rattus norvegicus; conditions: in vivo, iv, 1 mg/kg; remark: listed apart in the source
Description: as §3

[25] = organism: Rattus norvegicus; conditions: in vivo, iv, 1 mg/kg; remark: listed apart in the source
Description: as §2

[26] = organism: Mus musculus; assay: animal or person; conditions: CD1, po, 3 h, read-out: INH
[27] = in vivo; conditions: nude CD1, mouse, plasma, po, 1 mg/kg
Description: Plasma concentration in nude CD1 mouse at 1 mg/kg, po measured after 3 hrs

[28] = in vivo; conditions: nude CD1, mouse, plasma, po, 0.3 mg/kg
Description: Plasma concentration in nude CD1 mouse at 0.3 mg/kg, po measured after 3 hrs

[29] = in vivo; conditions: nude CD1, mouse, plasma, po, 3 mg/kg
Description: Plasma concentration in nude CD1 mouse at 3 mg/kg, po measured after 3 hrs

[30] = organism: Mus musculus; assay: animal or person; conditions: CD1, po, 3 h, read-out: INH; remark: listed apart in the source
[31] = organism: Mus musculus; assay: animal or person; conditions: CD1, po, 3 h, read-out: INH; remark: listed apart in the source

T1 sequence (P42336 whole entry, canonical isoform): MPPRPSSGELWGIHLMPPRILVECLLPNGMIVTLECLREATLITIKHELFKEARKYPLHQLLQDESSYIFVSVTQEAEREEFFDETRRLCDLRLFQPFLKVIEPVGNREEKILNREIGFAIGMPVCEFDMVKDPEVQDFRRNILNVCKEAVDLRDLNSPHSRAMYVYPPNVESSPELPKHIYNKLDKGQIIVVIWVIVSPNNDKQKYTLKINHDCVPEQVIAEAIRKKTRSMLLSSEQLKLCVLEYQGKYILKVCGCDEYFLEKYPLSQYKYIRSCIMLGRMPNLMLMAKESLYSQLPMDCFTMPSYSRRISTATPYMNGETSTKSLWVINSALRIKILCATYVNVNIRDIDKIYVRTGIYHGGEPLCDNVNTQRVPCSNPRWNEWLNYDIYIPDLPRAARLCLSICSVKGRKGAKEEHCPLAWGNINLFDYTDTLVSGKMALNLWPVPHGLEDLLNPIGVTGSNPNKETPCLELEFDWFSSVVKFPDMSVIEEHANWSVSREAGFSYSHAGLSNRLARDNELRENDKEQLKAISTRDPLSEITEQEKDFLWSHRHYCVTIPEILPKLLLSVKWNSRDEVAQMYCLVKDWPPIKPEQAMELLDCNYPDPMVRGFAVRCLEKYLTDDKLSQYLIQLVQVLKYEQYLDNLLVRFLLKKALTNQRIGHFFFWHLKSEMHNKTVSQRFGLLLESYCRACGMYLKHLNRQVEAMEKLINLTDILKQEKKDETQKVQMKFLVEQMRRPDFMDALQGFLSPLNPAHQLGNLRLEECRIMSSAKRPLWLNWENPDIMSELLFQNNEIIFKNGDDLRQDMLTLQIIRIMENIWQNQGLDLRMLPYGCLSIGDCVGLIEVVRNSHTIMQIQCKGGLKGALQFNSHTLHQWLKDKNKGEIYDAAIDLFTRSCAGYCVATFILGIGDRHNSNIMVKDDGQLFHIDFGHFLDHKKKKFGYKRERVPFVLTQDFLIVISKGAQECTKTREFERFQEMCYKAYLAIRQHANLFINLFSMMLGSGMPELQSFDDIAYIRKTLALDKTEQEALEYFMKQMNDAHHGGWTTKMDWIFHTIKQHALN

SMILES: O=S(=O)(Nc1cc(-c2cc3cccnc3cn2)cnc1Cl)c1ccc(F)cc1
IC50 [1]: > 10000 nM
Ki [2]: 200 nM

SMILES: CC(C)N1CCN(c2cnc3ccc(-c4cnc(Cl)c(NS(=O)(=O)c5ccc(F)cc5)c4)cc3n2)CC1
microsomal CLint at 0.5 h, 1 µM [3]: 32 µL/min/mg
bioavailability [4]: 72%
inhibition in vivo at 1 mg/kg [5]: 86%
AUC [6]: 10800 ng·h/mL
clearance [7]: 1.33 mL/min/kg
QH [8]: 0.6%
concentration at 4 h [9]: 417 ng/mL
IC50 [1]: 17 nM
inhibition in vivo at 3 mg/kg [10]: 95%
concentration at 4 h [11]: 155 ng/mL
IC50 [12]: 37 nM
IC50 [13]: 5.6 nM
IC50 [14]: 13 nM
microsomal CLint at 0.5 h, 1 µM [15]: 31 µL/min/mg
inhibition in vivo at 0.3 mg/kg [16]: 50%
MRT [17]: 5.4 h
Vd [18]: 0.4 L/kg
concentration at 4 h [19]: 1790 ng/mL
Ki [2]: 0.8 nM

SMILES: O=S(=O)(Nc1cc(-c2ccc3ncc(N4C[C@H]5CC[C@H](CC5)C4)nc3c2)cnc1Cl)c1ccc(F)cc1
IC50 [1]: 247 nM
Ki [2]: 1 nM

SMILES: CN(C)c1ccnc2ccc(-c3cnc(Cl)c(NS(=O)(=O)c4ccc(F)cc4)c3)cc12
IC50 [1]: 223 nM
Ki [2]: 5.7 nM

SMILES: O=S(=O)(Nc1cc(-c2cnc3ncccc3c2)cnc1Cl)c1ccc(F)cc1
Ki [2]: 856 nM

SMILES: O=S(=O)(Nc1cc(-c2ccc3nccc(-c4ccccc4)c3c2)cnc1Cl)c1ccc(F)cc1
IC50 [1]: 127 nM
Ki [2]: 1.3 nM

SMILES: O=S(=O)(Nc1cc(-c2ccc3ncc(NCCN4CCCCC4)nc3c2)cnc1Cl)c1ccc(F)cc1
CL [23]: 9.83 mL/min/kg
microsomal CLint at 0.5 h, 1 µM [3]: < 14 µL/min/mg
bioavailability [4]: 16%
AUC [6]: 271 ng·h/mL
QH [8]: 0.6%
Vdss [24]: 0.19 L/kg
MRT [25]: 2.1 h
microsomal CLint at 0.5 h, 1 µM [15]: 25 µL/min/mg

SMILES: O=S(=O)(Nc1cc(-c2ccc3nnccc3c2)cnc1Cl)c1ccc(F)cc1
IC50 [1]: 1920 nM
Ki [2]: 38 nM

SMILES: O=S(=O)(Nc1cc(-c2ccc3ncc(NCC4CCCNC4)nc3c2)cnc1Cl)c1ccc(F)cc1 (configuration not stated)
IC50 [1]: 2710 nM
Ki [2]: 3.3 nM

SMILES: O=S(=O)(Nc1cc(-c2ccc3nccc(N4CCC(O)CC4)c3c2)cnc1Cl)c1ccc(F)cc1
IC50 [1]: 150 nM
Ki [2]: 0.9 nM

SMILES: O=S(=O)(Nc1cc(-c2ccc3ncc(N4CCCCC4)nc3c2)cnc1Cl)c1ccc(F)cc1
IC50 [1]: 128 nM
Ki [2]: 0.9 nM

SMILES: COCCNc1ccnc2ccc(-c3cnc(Cl)c(NS(=O)(=O)c4ccc(F)cc4)c3)cc12
IC50 [1]: 1020 nM
Ki [2]: 69 nM

Now from value to compound, other results behind:

microsomal CLint at 0.5 h, 1 µM [3]: > 399 µL/min/mg
QH [8]: 0.6%
IC50 [1]: 18 nM
IC50 [13]: 6 nM
IC50 [20]: 15 nM
IC50 [14]: 6.5 nM
microsomal CLint at 0.5 h, 1 µM [15]: 247 µL/min/mg
IC50 [2]: 4.6 nM
Ki [2]: 0.9 nM
SMILES: O=S(=O)(Nc1cc(-c2ccc3nccc(N4CCN(Cc5ccncc5)CC4)c3c2)cnc1Cl)c1ccc(F)cc1

IC50 [1]: 377 nM
Ki [2]: 2.1 nM
SMILES: O=S(=O)(Nc1cc(-c2ccc3ncccc3c2)cnc1Cl)c1ccc(F)cc1

microsomal CLint at 0.5 h, 1 µM [3]: 16 µL/min/mg
bioavailability [4]: 88%
IC50 [21]: 3.4 nM
AUC [6]: 29600 ng·h/mL
IC50 [22]: 5 nM
clearance [7]: 0.333 mL/min/kg
QH [8]: 0.6%
concentration at 4 h [9]: 1730 ng/mL
concentration at 4 h [11]: 448 ng/mL
IC50 [12]: 5 nM
IC50 [13]: 4.4 nM
IC50 [14]: 2.4 nM
microsomal CLint at 0.5 h, 1 µM [15]: < 14 µL/min/mg
MRT [17]: 9 h
Vd [18]: 0.19 L/kg
concentration at 4 h [19]: 4470 ng/mL
SMILES: O=S(=O)(Nc1cc(-c2ccc3ncc(N4CCOCC4)nc3c2)cnc1Cl)c1ccc(F)cc1
inhibition in vivo at 1 mg/kg [5]: 86%
inhibition in vivo at 3 mg/kg [10]: 97%
inhibition in vivo at 0.3 mg/kg [16]: 55%

IC50 [1]: 136 nM
Ki [2]: 1 nM
SMILES: O=S(=O)(Nc1cc(-c2ccc3nccc(N4CCN(Cc5ccccc5)CC4)c3c2)cnc1Cl)c1ccc(F)cc1

IC50 [1]: 189 nM
Ki [2]: 0.6 nM
SMILES: O=S(=O)(Nc1cc(-c2ccc3ncc(N4CCC(F)(F)CC4)nc3c2)cnc1Cl)c1ccc(F)cc1

IC50 [1]: 61 nM
Ki [2]: 0.7 nM
SMILES: CN(C)c1ccc(-c2ccnc3ccc(-c4cnc(Cl)c(NS(=O)(=O)c5ccc(F)cc5)c4)cc23)cc1

IC50 [13]: 6 nM
IC50 [20]: 9.8 nM
IC50 [14]: 16 nM
SMILES: O=S(=O)(Nc1cc(-c2ccc3ncc(NCCN4CCOCC4)nc3c2)cnc1Cl)c1ccc(F)cc1

concentration at 3 h [27]: 899 ng/mL
microsomal CLint at 0.5 h, 1 µM [3]: 33 µL/min/mg
bioavailability [4]: 73%
AUC [6]: 5630 ng·h/mL
IC50 [22]: 2.9 nM
clearance [7]: 2.17 mL/min/kg
QH [8]: 0.6%
IC50 [13]: 5.9 nM
concentration at 3 h [28]: 210 ng/mL
IC50 [20]: 10 nM
IC50 [14]: 7.7 nM
microsomal CLint at 0.5 h, 1 µM [15]: < 14 µL/min/mg
concentration at 3 h [29]: 2330 ng/mL
MRT [17]: 6.3 h
Vd [18]: 0.81 L/kg
SMILES: O=S(=O)(Nc1cc(-c2ccc3nccc(-c4cccnc4)c3c2)cnc1Cl)c1ccc(F)cc1
inhibition in vivo at 3 mg/kg [26]: 99%
inhibition in vivo at 0.3 mg/kg [30]: 70%
inhibition in vivo at 1 mg/kg [31]: 97%

concentration at 3 h [27]: 950 ng/mL
microsomal CLint at 0.5 h, 1 µM [3]: 20 µL/min/mg
bioavailability [4]: 70%
AUC [6]: 14700 ng·h/mL
IC50 [22]: 5.3 nM
clearance [7]: 0.667 mL/min/kg
QH [8]: 0.6%
IC50 [12]: 0.41 nM
IC50 [13]: 6 nM
concentration at 3 h [28]: 326 ng/mL
IC50 [20]: 15 nM
IC50 [14]: 13 nM
microsomal CLint at 0.5 h, 1 µM [15]: < 14 µL/min/mg
concentration at 3 h [29]: 2470 ng/mL
MRT [17]: 15 h
Vd [18]: 0.52 L/kg
SMILES: O=S(=O)(Nc1cc(-c2ccc3nccc(-c4ccncc4)c3c2)cnc1Cl)c1ccc(F)cc1
inhibition in vivo at 3 mg/kg [26]: > 99%
inhibition in vivo at 0.3 mg/kg [30]: 89%
inhibition in vivo at 1 mg/kg [31]: 98%
